# Laboratory results published in US12286442B2, “Methods and materials for increasing transcription factor eb polypeptide levels” (University of Pittsburgh—Of the Commonwealth System of …, priority 2019, dated 2025).
# System: TFEB
# Experiment: High content screen measuring TFEB nuclear accumulation (TFEB nuclear/cytosol ratio) in BEAS-2B cells stably expressing TFEB-EGFP
# Type: cell-based, human
# Details: 18 hours incubation
# In short: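 Readout: lowest compound concentration giving a 25% rise in nuclear/cytosol TFEB-GFP ratio, from DAPI-masked nuclear and mask-expanded cytosolic signals. Cells (BEAS-2B, TFEB-EGFP stable, ~2300–2500/well) rested 8 hours, then treated 18 hours with compound serial dilutions in 2% FBS medium before PFA fixation and DAPI staining.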
row,SMILES,efficacy (minimal compound concentration needed to increase TFEB nuclear/cytosol ratio by 25%)
1,O=C(Cn1c(=O)n(-c2ccccc2)c(=O)c2ccccc21)Nc1cccc(Cl)c1 [Compound 227],+ (“+” equals >25 μM)
2,FC(F)(F)c1nc2ccc(Nc3nc(-c4ccncc4)nc4ncccc34)cc2o1 [Compound 358],++ (“++” equals between ≤25 μM and >1 μM)
3,Cc1ccc(-c2nc(Nc3cc(F)ccc3C)c3ccccc3n2)cc1 [Compound 195],+ (“+” equals >25 μM)
4,c1ccc2c(Nc3ccc4c(c3)OCO4)nc(-c3ccncc3)nc2c1 [Compound 12],+++ (“+++” equals ≤1 μM)
5,Cc1nc2cc(Cl)c(Nc3nc(-c4ccncc4)nc4ncccc34)cc2o1 [Compound 145],+++ (“+++” equals ≤1 μM)
6,CCc1nc2ccc(Nc3nc(-c4ccncc4)nc4ccncc34)cc2s1 [Compound 119],+ (“+” equals >25 μM)
7,c1ccc2c(Nc3ccc4ncsc4c3)nc(-c3cncs3)nc2c1 [Compound 107],+ (“+” equals >25 μM)
8,N#Cc1nc2ccc(Nc3nc(-c4ccncc4)nc4ccccc34)cc2s1 [Compound 87],+ (“+” equals >25 μM)
9,CC(C)c1nc2ccc(Nc3nc(-c4ccncc4)nc4ccncc34)cc2s1 [Compound 120],+ (“+” equals >25 μM)
10,CCc1ccc(-n2c(=O)c3ccccc3n(Cc3cccc(F)c3)c2=O)cc1 [Compound 237],++ (“++” equals between ≤25 μM and >1 μM)
11,c1cnc2nc(-c3ccncc3)nc(Nc3ccc4[nH]ccc4c3)c2c1 [Compound 81],+++ (“+++” equals ≤1 μM)
12,FC(F)(F)c1nc2ccc(Nc3nc(-c4ccncc4)nc4ccccc34)cc2o1 [Compound 96],+ (“+” equals >25 μM)
13,Cc1cccc2c(Nc3ccc4cnsc4c3)nc(-c3ccncc3)nc12 [Compound 380],++ (“++” equals between ≤25 μM and >1 μM)
14,Nc1c(Cl)cc(Nc2nc(-c3ccncc3)nc3ccccc23)cc1Cl [Compound 162],+ (“+” equals >25 μM)
15,O=C1Cc2cc(Nc3nc(-c4ccncc4)nc4ccccc34)ccc2N1 [Compound 40],++ (“++” equals between ≤25 μM and >1 μM)
16,CCn1c(=O)c2ccccc2n(CC(=O)Nc2ccccc2)c1=O [Compound 226],+ (“+” equals >25 μM)
17,Fc1ccc2c(Nc3ccc4[nH]ccc4c3)nc(-c3ccncc3)nc2c1 [Compound 112],+++ (“+++” equals ≤1 μM)
18,Cc1ccc(-c2nc(Nc3ccc(C)c(F)c3)c3ccccc3n2)cc1 [Compound 202],+ (“+” equals >25 μM)
19,Fc1ccc(Nc2nc(-c3ccncc3)nc3ccccc23)cc1 [Compound 181],+++ (“+++” equals ≤1 μM)
20,Fc1cccc2c(Nc3ccc4nc(C5CC5)sc4c3)nc(-c3ccncc3)nc12 [Compound 373],++ (“++” equals between ≤25 μM and >1 μM)
21,Cc1nc2ccc(Nc3nc(-c4ccncc4)nc4c(F)cccc34)cc2s1 [Compound 381],+++ (“+++” equals ≤1 μM)
22,Cc1nc2cc(Cl)c(Nc3nc(-c4ccncc4)nc4ccncc34)cc2o1 [Compound 144],+ (“+” equals >25 μM)
23,c1cc(-c2nc(Nc3ccc4cn[nH]c4c3)c3cnccc3n2)ccn1 [Compound 125],++ (“++” equals between ≤25 μM and >1 μM)
24,Fc1cccc(Nc2nc(-c3ccncc3)nc3ncccc23)c1 [Compound 82],+++ (“+++” equals ≤1 μM)
25,Fc1cccc(Nc2cc(-c3ccncc3)nc3ccccc23)c1 [Compound 69],+ (“+” equals >25 μM)
26,Cc1ccc(Nc2nc(-c3ccc([N+](=O)[O-])cc3)nc3ccccc23)c(C)c1 [Compound 200],++ (“++” equals between ≤25 μM and >1 μM)
27,CC(=O)Nc1ccc(Nc2nc(-c3ccncc3)cc3ncccc23)cc1O [Compound 401],+++ (“+++” equals ≤1 μM)
28,FC(F)c1nc2ccc(Nc3nc(-c4ccncc4)nc4ccccc34)cc2s1 [Compound 92],++ (“++” equals between ≤25 μM and >1 μM)
29,COc1ccc2nc(-c3ccncc3)nc(Nc3ccc4nc(C(C)C)sc4c3)c2c1 [Compound 353],++ (“++” equals between ≤25 μM and >1 μM)

# System: BEAS-2B cells
# Experiment: Toxicity: compound concentration needed to induce greater than 50 percent of cell loss
# Type: cell-based, human
# Details: 18 hours incubation
# In short: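 Reported value is the concentration giving greater than 50 percent cell loss, grouped into bins (≥25 μM; between 1 and 25 μM; ≤1 μM as "+++"). Measured by high-content imaging of DAPI-stained BEAS-2B TFEB-EGFP cells fixed after 18 h compound exposure.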
row,SMILES,toxicity (compound concentration needed to induce greater than 50 percent of cell loss)
1,O=C(Cn1c(=O)n(-c2ccccc2)c(=O)c2ccccc21)Nc1cccc(Cl)c1 [Compound 227],+ (cell loss of greater than 50 percent at a concentration that equals or is greater than 25 μM was represented as)
2,FC(F)(F)c1nc2ccc(Nc3nc(-c4ccncc4)nc4ncccc34)cc2o1 [Compound 358],+ (cell loss of greater than 50 percent at a concentration that equals or is greater than 25 μM was represented as)
3,Cc1ccc(-c2nc(Nc3cc(F)ccc3C)c3ccccc3n2)cc1 [Compound 195],+ (cell loss of greater than 50 percent at a concentration that equals or is greater than 25 μM was represented as)
4,c1ccc2c(Nc3ccc4c(c3)OCO4)nc(-c3ccncc3)nc2c1 [Compound 12],+ (cell loss of greater than 50 percent at a concentration that equals or is greater than 25 μM was represented as)
5,Cc1nc2cc(Cl)c(Nc3nc(-c4ccncc4)nc4ncccc34)cc2o1 [Compound 145],+ (cell loss of greater than 50 percent at a concentration that equals or is greater than 25 μM was represented as)
6,CCc1nc2ccc(Nc3nc(-c4ccncc4)nc4ccncc34)cc2s1 [Compound 119],+ (cell loss of greater than 50 percent at a concentration that equals or is greater than 25 μM was represented as)
7,c1ccc2c(Nc3ccc4ncsc4c3)nc(-c3cncs3)nc2c1 [Compound 107],+ (cell loss of greater than 50 percent at a concentration that equals or is greater than 25 μM was represented as)
8,N#Cc1nc2ccc(Nc3nc(-c4ccncc4)nc4ccccc34)cc2s1 [Compound 87],+ (cell loss of greater than 50 percent at a concentration that equals or is greater than 25 μM was represented as)
9,CC(C)c1nc2ccc(Nc3nc(-c4ccncc4)nc4ccncc34)cc2s1 [Compound 120],+ (cell loss of greater than 50 percent at a concentration that equals or is greater than 25 μM was represented as)
10,CCc1ccc(-n2c(=O)c3ccccc3n(Cc3cccc(F)c3)c2=O)cc1 [Compound 237],+ (cell loss of greater than 50 percent at a concentration that equals or is greater than 25 μM was represented as)
11,c1cnc2nc(-c3ccncc3)nc(Nc3ccc4[nH]ccc4c3)c2c1 [Compound 81],++ (cell loss of greater than 50 percent at a concentration less than 25 μM and greater than 1 μM was represented as)
12,FC(F)(F)c1nc2ccc(Nc3nc(-c4ccncc4)nc4ccccc34)cc2o1 [Compound 96],+ (cell loss of greater than 50 percent at a concentration that equals or is greater than 25 μM was represented as)
13,Cc1cccc2c(Nc3ccc4cnsc4c3)nc(-c3ccncc3)nc12 [Compound 380],+ (cell loss of greater than 50 percent at a concentration that equals or is greater than 25 μM was represented as)
14,Nc1c(Cl)cc(Nc2nc(-c3ccncc3)nc3ccccc23)cc1Cl [Compound 162],+ (cell loss of greater than 50 percent at a concentration that equals or is greater than 25 μM was represented as)
15,O=C1Cc2cc(Nc3nc(-c4ccncc4)nc4ccccc34)ccc2N1 [Compound 40],+ (cell loss of greater than 50 percent at a concentration that equals or is greater than 25 μM was represented as)
16,CCn1c(=O)c2ccccc2n(CC(=O)Nc2ccccc2)c1=O [Compound 226],+ (cell loss of greater than 50 percent at a concentration that equals or is greater than 25 μM was represented as)
17,Fc1ccc2c(Nc3ccc4[nH]ccc4c3)nc(-c3ccncc3)nc2c1 [Compound 112],+ (cell loss of greater than 50 percent at a concentration that equals or is greater than 25 μM was represented as)
18,Cc1ccc(-c2nc(Nc3ccc(C)c(F)c3)c3ccccc3n2)cc1 [Compound 202],+ (cell loss of greater than 50 percent at a concentration that equals or is greater than 25 μM was represented as)
19,Fc1ccc(Nc2nc(-c3ccncc3)nc3ccccc23)cc1 [Compound 181],+ (cell loss of greater than 50 percent at a concentration that equals or is greater than 25 μM was represented as)
20,Fc1cccc2c(Nc3ccc4nc(C5CC5)sc4c3)nc(-c3ccncc3)nc12 [Compound 373],+ (cell loss of greater than 50 percent at a concentration that equals or is greater than 25 μM was represented as)
21,Cc1nc2ccc(Nc3nc(-c4ccncc4)nc4c(F)cccc34)cc2s1 [Compound 381],+ (cell loss of greater than 50 percent at a concentration that equals or is greater than 25 μM was represented as)
22,Cc1nc2cc(Cl)c(Nc3nc(-c4ccncc4)nc4ccncc34)cc2o1 [Compound 144],+ (cell loss of greater than 50 percent at a concentration that equals or is greater than 25 μM was represented as)
23,c1cc(-c2nc(Nc3ccc4cn[nH]c4c3)c3cnccc3n2)ccn1 [Compound 125],+ (cell loss of greater than 50 percent at a concentration that equals or is greater than 25 μM was represented as)
24,Fc1cccc(Nc2nc(-c3ccncc3)nc3ncccc23)c1 [Compound 82],+ (cell loss of greater than 50 percent at a concentration that equals or is greater than 25 μM was represented as)
25,Fc1cccc(Nc2cc(-c3ccncc3)nc3ccccc23)c1 [Compound 69],+ (cell loss of greater than 50 percent at a concentration that equals or is greater than 25 μM was represented as)
26,Cc1ccc(Nc2nc(-c3ccc([N+](=O)[O-])cc3)nc3ccccc23)c(C)c1 [Compound 200],+ (cell loss of greater than 50 percent at a concentration that equals or is greater than 25 μM was represented as)
27,CC(=O)Nc1ccc(Nc2nc(-c3ccncc3)cc3ncccc23)cc1O [Compound 401],+ (cell loss of greater than 50 percent at a concentration that equals or is greater than 25 μM was represented as)
28,FC(F)c1nc2ccc(Nc3nc(-c4ccncc4)nc4ccccc34)cc2s1 [Compound 92],+ (cell loss of greater than 50 percent at a concentration that equals or is greater than 25 μM was represented as)
29,COc1ccc2nc(-c3ccncc3)nc(Nc3ccc4nc(C(C)C)sc4c3)c2c1 [Compound 353],+ (cell loss of greater than 50 percent at a concentration that equals or is greater than 25 μM was represented as)
